Assay results reported in US9346795B2, “Substituted sulfonamides useful as antiapoptotic Bcl inhibitors” (Bristol-Myers Squibb Company, priority 2011, dated 2016).

Columns and labels:
[1] = molecular target: Bcl-2 (Homo sapiens (Human), UniProt P10415); experiment: Bcl-2/Bim Fluorescence Polarization Assay (FPA); type: binding
Protocol: Bcl-2/Bim Fluorescence Polarization Assay (FPA)
The assays were performed in black flat-bottom 384-well plates. […] The reaction was incubated at room temperature for 60 minutes and fluorescence polarization of the reaction was detected on the LJL Plate Reader. Inhibition data were calculated from mP values generated by the no protein control reactions for 100% inhibition and vehicle-only reactions for 0% inhibition. The final concentrations of reagents in the assay were 4.9 nM BCL-2, 5 nM fluoresceinated 18-mer BIM peptide and 1% DMSO. […] Compounds were dissolved at 10 mM in dimethylsulfoxide (DMSO) and evaluated at eleven concentrations. IC50 values were derived by non-linear regression analysis.

[2] = molecular target: Bcl-xL (Homo sapiens (Human), UniProt Q07817); experiment: Bcl-xL/Bim Fluorescence Resonance Energy Transfer Assay (FRET); type: binding
Protocol: Bcl-xL/Bim Fluorescence Resonance Energy Transfer Assay (FRET) The assays were performed in black flat-bottom 384-well plates. The final assay volume was 55 μl prepared from additions of Biotin-Bcl-xL (Bcl-xL: GENBANK® Accession No. […] The reaction was incubated at room temperature for 60 minutes. After 60 minutes, 5 μL of Streptavidin-Terbium FRET detection reagent (Perkin Elmer) was added to the reaction mixture and incubated at room temperature in the dark for 30 mins. […] Compounds were dissolved at 10 mM in dimethylsulfoxide (DMSO) and evaluated at eleven concentrations. IC50 values were derived by non-linear regression analysis.

Chain of Bcl-xL (Q07817 whole entry): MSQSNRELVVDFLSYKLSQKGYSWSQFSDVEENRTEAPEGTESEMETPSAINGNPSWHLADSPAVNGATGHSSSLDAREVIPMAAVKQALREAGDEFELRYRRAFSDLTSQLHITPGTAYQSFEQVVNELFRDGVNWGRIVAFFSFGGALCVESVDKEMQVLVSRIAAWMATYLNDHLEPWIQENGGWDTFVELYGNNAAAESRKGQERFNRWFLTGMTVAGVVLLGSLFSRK
Chain of Bcl-2 (P10415 whole entry): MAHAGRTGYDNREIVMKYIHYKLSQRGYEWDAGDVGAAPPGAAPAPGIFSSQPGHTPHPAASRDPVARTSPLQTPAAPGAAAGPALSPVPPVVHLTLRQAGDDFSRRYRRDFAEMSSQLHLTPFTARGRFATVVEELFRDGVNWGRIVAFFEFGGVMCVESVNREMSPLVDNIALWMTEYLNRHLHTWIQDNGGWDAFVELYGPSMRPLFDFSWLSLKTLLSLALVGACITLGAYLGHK

Structure (SMILES)	IC50 [1] [nM]	IC50 [2] [nM]
CCCCN(CCCC)C(=O)c1nn(-c2ccc(C(=O)NS(=O)(=O)c3ccc4cccc(OCCCN5CCOCC5)c4c3)cc2C(=O)N2CCc3ccccc3C2)c(C)c1Cl [Example 32, N,N-dibutyl-4-chloro-5-methyl-1-(4-(8-(3-morpholinopropoxy)naphthalen-2-ylsulfonylcarbamoyl)-2-(1,2,3,4-tetrahydroisoquinoline-2-carbonyl)phenyl)-1H-pyrazole-3-carboxamide]	290	50
CCCCN(CCCC)C(=O)c1nn(-c2ccc(C(=O)NS(=O)(=O)c3cc(Br)c4c(ccn4CC)c3)cc2C(=O)N2Cc3ccccc3C[C@H]2CO)c(C)c1Cl [Example 208, 1-(4-(7-bromo-1-ethyl-1H-indol-5-ylsulfonylcarbamoyl)-2-((S)-3-(hydroxymethyl)-1,2,3,4-tetrahydroisoquinoline-2-carbonyl)phenyl)-N,N-dibutyl-4-chloro-5-methyl-1H-pyrazole-3-carboxamide]	3.59	7.88
CCCCN(CCCC)C(=O)c1nn(-c2ccc(C(=O)NS(=O)(=O)c3ccc4ccc(OC(C)C)cc4c3)cc2C(=O)N2CCc3ccccc3C2)c(C)c1Cl [Example 24, N,N-dibutyl-4-chloro-1-(4-(7-isopropoxynaphthalen-2-ylsulfonylcarbamoyl)-2-(1,2,3,4-tetrahydroisoquinoline-2-carbonyl)phenyl)-5-methyl-1H-pyrazole-3-carboxamide]	50	20
CCCCc1c(-c2ccc(C(=O)NS(=O)(=O)c3ccc4ccccc4c3)cc2C(=O)N2CCc3ccccc3C2)c(CO)nn1-c1ccc(Oc2cccc(Cl)c2)cc1 [Example 243, 4-(5-butyl-1-(4-(3-chlorophenoxy)phenyl)-3-(hydroxymethyl)-1H-pyrazol-4-yl)-N-(naphthalen-2-ylsulfonyl)-3-(1,2,3,4-tetrahydroisoquinoline-2-carbonyl)benzamide]	7.83	20
CCCCN(CCCC)C(=O)c1nn(-c2ccc(C(=O)NS(=O)(=O)c3ccc4c(ccn4Cc4ccc(Cl)c(Cl)c4)c3)cc2C(=O)N2CCc3ccccc3C2)c(C)c1Cl [Example 68, N,N-dibutyl-4-chloro-1-(4-(1-(3,4-dichlorobenzyl)-1H-indol-5-ylsulfonylcarbamoyl)-2-(1,2,3,4-tetrahydroisoquinoline-2-carbonyl)phenyl)-5-methyl-1H-pyrazole-3-carboxamide]	50	110
CCCCN(Cc1ccc(Cl)c(Cl)c1)C(=O)c1nn(-c2ccc(C(=O)NS(=O)(=O)c3ccc4ccc(I)cc4c3)cc2C(=O)N2CCc3ccccc3C2)c(C)c1Cl [Example 179, N-Butyl-4-chloro-N-(3,4-dichlorobenzyl)-1-(4-(7-iodonaphthalen-2-ylsulfonylcarbamoyl)-2-(1,2,3,4-tetrahydroisoquinoline-2-carbonyl)phenyl)-5-methyl-1H-pyrazole-3-carboxamide]	20	80
CCCCN(CCCC)C(=O)c1nn(-c2ccc(C(=O)NS(=O)(=O)c3ccc4c(c3)c(I)cn4CC)cc2C(=O)N2CCc3ccccc3C2)c(C)c1Cl [Example 84, N,N-dibutyl-4-chloro-1-(4-(1-ethyl-3-iodo-1H-indol-5-ylsulfonylcarbamoyl)-2-(1,2,3,4-tetrahydroisoquinoline-2-carbonyl)phenyl)-5-methyl-1H-pyrazole-3-carboxamide]	7.69	80
CCCN(CCC)c1ncc(Cl)c(-c2ccc(C(=O)NS(=O)(=O)c3ccc4cccc(Cl)c4c3)cc2C(=O)N2Cc3ccccc3C[C@H]2CN)n1 [Example 329, 3-((S)-3-(Aminomethyl)-1,2,3,4-tetrahydroisoquinoline-2-carbonyl)-4-(5-chloro-2-(dipropylamino)pyrimidin-4-yl)-N-(8-chloronaphthalen-2-ylsulfonyl)benzamide]	5.09	20
CCCCc1c(-c2ccc(C(=O)NS(=O)(=O)c3ccc4ccccc4c3)cc2C(=O)N2CCc3ccccc3C2)c(C(=O)OCC)nn1-c1ccc(Oc2cccc(Cl)c2)cc1 [Example 230, Ethyl 5-butyl-1-(4-(3-chlorophenoxy)phenyl)-4-(4-(naphthalen-2-ylsulfonylcarbamoyl)-2(1,2,3,4-tetrahydroisoquinoline-2-carbonyl)phenyl)-1H-pyrazole-3-carboxylate]	20	60
CCCCN(CCCC)C(=O)c1nn(-c2ccc(C(=O)NS(=O)(=O)c3ccc4c(c3)CCN4Cc3ccc(Cl)c(Cl)c3)cc2C(=O)N2CCc3ccccc3C2)c(C)c1Cl [Example 59, N,N-dibutyl-4-chloro-1-(4-(1-(3,4-dichlorobenzyl)indolin-5-ylsulfonylcarbamoyl)-2-(1,2,3,4-tetrahydroisoquinoline-2-carbonyl)phenyl)-5-methyl-1H-pyrazole-3-carboxamide]	20	40
Cc1c(Cl)c(C(=O)N(CCC(F)(F)F)CCC(F)(F)F)nn1-c1ccc(C(=O)NS(=O)(=O)c2ccc3ccccc3c2)cc1C(=O)N1CCc2ccccc2C1 [Example 130, 4-chloro-5-methyl-1-(4-(naphthalen-2-ylsulfonylcarbamoyl)-2-(1,2,3,4-tetrahydroisoquinoline-2-carbonyl)phenyl)-N,N-bis(3,3,3-trifluoropropyl)-1H-pyrazole-3-carboxamide]	80	30
CCCCN(Cc1ccc(Cl)c(Cl)c1)C(=O)c1nn(-c2ccc(C(=O)NS(=O)(=O)c3ccc4cccc(Cl)c4c3)cc2C(=O)N2Cc3ccccc3C[C@H]2CO)c(C)c1Cl [Example 181, N-Butyl-4-chloro-1-(4-(8-chloronaphthalen-2-ylsulfonylcarbamoyl)-2-((S)-3-(hydroxymethyl)-1,2,3,4-tetrahydroisoquinoline-2-carbonyl)phenyl)-N-(3,4-dichlorobenzyl)-5-methyl-1H-pyrazole-3-carboxamide]	8.49	50
CCCCc1c(-c2ccc(C(=O)NS(=O)(=O)c3ccc4ccccc4c3)cc2C(=O)N2Cc3ccccc3C[C@H]2CO)c(CO)nn1-c1ccccc1 [Example 260, 4-(5-Butyl-3-(hydroxymethyl)-1-phenyl-1H-pyrazol-4-yl)-3-((S)-3-(hydroxymethyl)-1,2,3,4-tetrahydroisoquinoline-2-carbonyl)-N-(naphthalen-2-ylsulfonyl)benzamide]	10	8.01
CCCCN(C(=O)c1nn(-c2ccc(C(=O)NS(=O)(=O)c3ccc4c(Cl)ccc(Cl)c4c3)cc2C(=O)N2CCc3ccccc3C2)c(C)c1Cl)c1cccc(-c2ccc(Cl)cc2)c1 [Example 221, N-butyl-4-chloro-N-(4′-chlorobiphenyl-3-yl)-1-(4-(5,8-dichloronaphthalen-2-ylsulfonylcarbamoyl)-2-(1,2,3,4-tetrahydroisoquinoline-2-carbonyl)phenyl)-5-methyl-1H-pyrazole-3-carboxamide]	40	40
CCCN(CCC)c1nn(-c2ccc(C(=O)NS(=O)(=O)c3ccc4cccc(Cl)c4c3)cc2C(=O)N2Cc3ccccc3C[C@H]2CO)c(C(F)(F)F)c1Cl [Example 195, 4-(4-Chloro-3-(dipropylamino)-5-(trifluoromethyl)-1H-pyrazol-1-yl)-N-(8-chloronaphthalen-2-ylsulfonyl)-3-((S)-3-(hydroxymethyl)-1,2,3,4-tetrahydroisoquinoline-2-carbonyl)benzamide]	30	290
CCCCc1c(-c2ccc(C(=O)NS(=O)(=O)c3ccc4ccccc4c3)cc2C(=O)N2CCc3ccccc3C2)c(CO)nn1-c1ccc(OCC(O)CO)cc1 (racemic) [Example 258, (±)-4-(5-Butyl-1-(4-(2,3-dihydroxypropoxy)phenyl)-3-(hydroxymethyl)-1H-pyrazol-4-yl)-N-(naphthalen-2-ylsulfonyl)-3-(1,2,3,4-tetrahydroisoquinoline-2-carbonyl)benzamide]	8.13	
CCCCN(CCCC)C(=O)c1nn(-c2ccc(C(=O)NS(=O)(=O)c3ccc4ccccc4c3)cc2C(=O)N2Cc3ccccc3C[C@H]2CO)c(C)c1Cl [Example 91, N,N-Dibutyl-4-chloro-1-(2-((S)-3-(hydroxymethyl)-1,2,3,4-tetrahydroisoquinoline-2-carbonyl)-4-(naphthalen-2-ylsulfonylcarbamoyl)phenyl)-5-methyl-1H-pyrazole-3-carboxamide]	50	
CCCCN(CCCC)C(=O)c1nn(-c2ccc(C(=O)NS(=O)(=O)c3ccc4ccc(I)cc4c3)cc2C(=O)N2CCc3ccccc3C2)c(C)c1Cl [Example 11, N,N-dibutyl-4-chloro-1-(4-(7-iodonaphthalen-2-ylsulfonylcarbamoyl)-2-(1,2,3,4-tetrahydroisoquinoline-2-carbonyl)phenyl)-5-methyl-1H-pyrazole-3-carboxamide]		50
CCCCN(CCCC)C(=O)c1nn(-c2ccc(C(=O)NS(=O)(=O)c3ccc4ccccc4c3)cc2C(=O)N2Cc3ccccc3C[C@H]2CNC2CCN(C)CC2)c(C)c1Cl [Example 106, N,N-Dibutyl-4-chloro-5-methyl-1-(2-((S)-3-((1-methylpiperidin-4-ylamino)methyl)-1,2,3,4-tetrahydroisoquinoline-2-carbonyl)-4-(naphthalen-2-ylsulfonylcarbamoyl)phenyl)-1H-pyrazole-3-carboxamide]	20	
